Reference: patent US12459951B2, “Compounds that interact with RAS superfamily proteins for treatment of cancers, inflammatory diseases, rasopathies, and fibrotic disease” (SHY Therapeutics, LLC, priority 2022, dated 2025)

Columns and labels:
[1] = tested on: Erk1/2 phosphorylation; assay: Erk1/2 Phosphorylation Assay (western blot), Panc-1; format: cell-based, human; settings: at 10 μM, * = activation
Experimental: Protocol for Western Erk1/2 Cell-Based Phosphorylation Assay
This assay is referred to as the “Erk1/2 Phosphorylation Assay” throughout this application.
Cell lines: Human tumor-derived pancreatic cancer cell line Panc-1 (expressing KRas G12D mutant) was purchased from American Type Culture Collection and grown in complete DMEM-High Glucose medium, supplemented with penicillin (100 U/mL), streptomycin (100 μg/mL), and 10% heat-inactivated FBS at 37° C. in a humidified incubator with 5% CO2.
Method 1: Cells were plated at 350000 cells/well density in a 12-well plate, allowed 3 hours to adhere to the plate, then starved in the appropriate medium in the presence of 0.5% FBS overnight. The small molecules to be tested were added to the cells in the final concentration of 10 μM in the presence of 0.3% DMSO for 6 hours incubation at 37° C. For IC50 value determination, serial dilutions of compounds were added to cells under the same conditions. Next, cells were stimulated with 1.5 ng/ml EGF for 15 minutes then cells were lysed with lysis buffer containing 1% Triton X-100, EDTA, and Halt™ Protease & Phosphatase Inhibitor Cocktail (Thermo Scientific). Protein concentration was assessed by BCA protein assay (Thermo Scientific). Phosphorylation level of Erk1/2 was determined by western blot.
Method 2: Cells were plated at 350000 cells/well density in a 12-well plate in 10% FBS. The next day small molecules to be tested were added to the cells in the final concentration of 10 μM in the presence of 0.3% DMSO for 6 hours incubation at 37° C. For IC50 value determination, serial dilutions of compounds were added to cells under the same conditions. Next, cells were lysed with lysis buffer containing 1% Triton X-100, EDTA, and Halt™ Protease & Phosphatase Inhibitor Cocktail (Thermo Scientific). Protein concentration was assessed by BCA protein assay (Thermo Scientific). Phosphorylation level of Erk1/2 was determined by western blot.
Western blot protocol: Equal amounts of protein (15-50 μg) were separated by SDS-PAGE and transferred to nitrocellulose membranes (Invitrogen by Thermo Fisher Scientific). The membrane was stained with Ponceau S Stain (Boston BioProducts) to verify uniform protein loading. Membranes were blocked with 10% milk and phosphorylation levels of Erk1/2 were assessed by incubating overnight at 4° C. with anti-phospho-p44/42 (Thr202/Tyr204) antibody (Cell Signaling) followed by HRP-conjugated secondary antibody (Jackson Immunoresearch, West Grove, PA). Bands were incubated in Amersham ECL Prime Western Blotting Detection Reagent (GE Healthcare) and visualized using the ChemiDoc MP imaging system (Bio-Rad).

[2] = tested on: IL6; assay: IL-6 Quantification Assay (ELISA), LPS-stimulated RAW 264.7; format: cell-based; set-up: inhibition: dose or concentration left out as unconfirmed; settings: Mus musculus, RAW264.7; read-out: IL-6: % inh.
[3] = tested on: TNF-alpha; assay: TNF-alpha Quantification Assay (ELISA), LPS-stimulated RAW 264.7; format: cell-based; settings: Mus musculus, RAW264.7; at 10 μM; read-out: TNFα: % inh.
[4] = tested on: KRas G12D mutant; assay: Ras GTP Binding Domain Inhibition Assay (Ras Superfamily Assay); settings: 20 μM compound; for KRas G12D mutant + SOS: % inh.: with SOS; for KRas G12D mutant: % inh.: without SOS
From the text: (§1) Biological Example 3: Ras GTP Binding Domain Inhibition Assay
(§2) The assays described in Example 3 are collectively referred to as the “Ras Superfamily Assay” throughout this application.
(§3) A Ras Superfamily Activity Assay (as disclosed in International Application No. PCT/US2018/038613, filed Jun. 20, 2018, which is incorporated by reference in its entirety) was used as a specific assay to evaluate compounds against the following for the following Ras Superfamily proteins: KRas wild type, KRas Q61H mutant, KRas G12C mutant, KRas G12D mutant, Rac-1, and Rho-A.
(§4) • 25 mM Tris-HCl, pH 7.4 • 27 mM KCl • 137 mM NaCl • 1 mM MgCl2 • 1 mM DTT Buffer-II: • 50 mM Tris-HCl, pH 7.0 • 1 mM MgCl2 • 1 mM DTT
(§5) The small GTPases proteins: KRas wild type. KRas Q61H mutant, KRas G12C mutant, KRas G12D mutants, Rac-1, and Rho-A were expressed as His-tagged proteins. In addition, the Guanosine nucleotide Exchange Factor (GEF) Sos protein (residues 556-1049) was expressed as a His-tagged protein. In cells, the guanine nucleotide exchange factor Sos protein promotes activation of Ras proteins by stimulating an exchange of GDP for GTP. The inclusion of Sos to the Ras GTP binding domain inhibition assay may be considered as an alternative representation of physiological cellular conditions for evaluating the inhibitory activity of some of the tested small molecules.
(§6) For the assay, all purified small GTPases proteins were diluted in Buffer-I or Buffer-II to a final concentration of 10-30 μg/mL. 200 μL of each diluted protein was added to a nickel-coated 96-well plate and incubated overnight at 4° C. Then the protein solution was discarded and 200 μL of Buffer-I or Buffer-II was added to each well in the presence of 1% DMSO. Compounds to be tested were added to the protein-coated wells at final concentration of 20 μM, and incubated for 3 hours at room temperature with and without 10-30 μg/mL of Sos added to the final hour of the incubation. When performing IC50 measurements a serial dilution of all tested concentrations was added. Then Cy3-GTP or Cy5-GTP was added to each well to a final concentration of 100 nM. The labeled GTP was incubated for 45 minutes at room temperature. Following GTP incubation, wells were washed 3× in Buffer-I or Buffer-II and 200 μL of Buffer-I or Buffer-II was added to each well. Following washes, the amount of bound labeled-GTP was measured using a SpectraMax M3 (Molecular Devices).

[5] = tested on: KRas wild type; assay: as above; settings: 20 μM compound; for KRas wild type + SOS: % inh.: with SOS; for KRas wild type: % inh.: without SOS
From the text: as §1, §2, §3, §4, §5, §6

[6] = target: T1, Rac-1 (Homo sapiens, UniProt P63000); assay: as above; settings: read-out: Rac-1: % inh.
T1 construct: made in house
From the text: as §1, §2, §3, §4, §5, §6

| SMILES | % inh of Erk1/2 phosphorylation in Panc-1 [1] | inhibition [2] | inhibition at 10 µM [3] | KRas G12D mutant + SOS: % inh. [4] | KRas G12D mutant: % inh. [4] | KRas wild type + SOS: % inh. [5] | KRas wild type: % inh. [5] | inhibition at 20 µM [6] |
| --- | --- | --- | --- | --- | --- | --- | --- | --- |
| COc1ccnc(Nc2nc(-c3nccn3C)nn3cc(-c4ccn(C(F)F)n4)c(C)c23)n1 [Compound 95, 6-(1-(Difluoromethyl)-1H-pyrazol-3-yl)-N-(4-methoxypyrimidin-2-yl)-5-methyl-2-(1-methyl-1H-imidazol-2-yl)pyrrolo[2,1-f][1,2,4]triazin-4-amine] | D* (85-100% activation) | 1 to 24% | 1 to 24% | C (C = 50-75% inhibition) | C (C = 50-75% inhibition) | B (B = 26-49% inhibition) | C (C = 50-75% inhibition) | 76 to 100% |
| Cc1c(-c2ccn(C(C)C)n2)cn2nc(-c3nccn3C)nc(Nc3nccc(OCCN(C)C)n3)c12 [Compound 96, N-(4-(2-(Dimethylamino)ethoxy)pyrimidin-2-yl)-6-(1-isopropyl-1H-pyrazol-3-yl)-5-methyl-2-(1-methyl-1H-imidazol-2-yl)pyrrolo[2,1-f][1,2,4]triazin-4-amine] | 0 (0% inhibition) | 50 to 74% | 0% | D (D = 76-100% inhibition) | D (D = 76-100% inhibition) | D (D = 76-100% inhibition) | D (D = 76-100% inhibition) | 76 to 100% |
| Cc1c(-c2ccn(C(C)C)n2)cn2nc(-c3nccn3C)nc(Nc3cc(OCCO)ncn3)c12 [Compound 97, 2-((6-((6-(1-Isopropyl-1H-pyrazol-3-yl)-5-methyl-2-(1-methyl-1H-imidazol-2-yl)pyrrolo[2,1-f][1,2,4]triazin-4-yl)amino)pyrimidin-4-yl)oxy) ethan-1-ol] | D* (85-100% activation) | 1 to 24% | 0% | D (D = 76-100% inhibition) | D (D = 76-100% inhibition) | D (D = 76-100% inhibition) | D (D = 76-100% inhibition) | 76 to 100% |
| COc1cc(Nc2nc(-c3nccn3C)nn3cc(-c4ccn(C(F)F)n4)c(C)c23)ncn1 [Compound 98, 6-(1-(Difluoromethyl)-1H-pyrazol-3-yl)-N-(6-methoxypyrimidin-4-yl)-5-methyl-2-(1-methyl-1H-imidazol-2-yl)pyrrolo[2,1-f][1,2,4]triazin-4-amine] | D* (85-100% activation) | 1 to 24% | 0% | C (C = 50-75% inhibition) | C (C = 50-75% inhibition) | A (A = 1-25% inhibition) | C (C = 50-75% inhibition) | 50 to 75% |
| Cc1c(-c2ccn(C)n2)cn2nc(-c3nccn3C)nc(Cl)c12 [Compound 99, 4-Chloro-5-methyl-2-(1-methyl-1H-imidazol-2-yl)-6-(1-methyl-1H-pyrazol-3-yl)pyrrolo[2,1-f][1,2,4]triazine] | D* (85-100% activation) | 75 to 100% | 75 to 100% | B (B = 26-49% inhibition) | B (B = 26-49% inhibition) | B (B = 26-49% inhibition) | C (C = 50-75% inhibition) | 50 to 75% |
